Reference: PMC8636556, “Cloning, expression, purification and characterization of chitin deacetylase extremozyme from halophilic Bacillus aryabhattai B8W22” (3 Biotech, 2021)

Target: T1, BaCDA (Priestia aryabhattai, UniProt A0A7W3NGR0)
T1 construct: gene HNP21_005748
Experiment: biochemical
Conditions: read-out: Relative activity (%) / Ethylene glycol chitin

T1 sequence (A0A7W3NGR0 1-254): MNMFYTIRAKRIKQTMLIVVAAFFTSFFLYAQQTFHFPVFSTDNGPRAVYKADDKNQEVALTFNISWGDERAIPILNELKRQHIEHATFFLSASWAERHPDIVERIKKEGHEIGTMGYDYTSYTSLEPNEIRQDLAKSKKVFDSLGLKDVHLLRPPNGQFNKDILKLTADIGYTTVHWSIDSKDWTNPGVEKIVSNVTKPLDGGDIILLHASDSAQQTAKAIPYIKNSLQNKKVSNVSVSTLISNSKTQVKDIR

activity at 10000 µM: 49.9 ± 3.89%
Structure (SMILES): CC(=O)O [acetate]
